Results: patent US7087623B2, “Thiazole and other heterocyclic ligands for mammalian dopamine, muscarinic and serotonin receptors and transporters, and methods of use thereof” (Sepracor Inc., priority 2001, dated 2006)
Like-named read-outs stand apart in the source and are kept apart here.

Legend:
[1] = target: T1, human serotonin 5-HT2A receptor (Homo sapiens, UniProt P28223); assay: Radioligand binding assay, human 5-HT2A receptors ([3H]Ketanserin)
T1 construct: expressed in transfected cells; host or cells: CHO-K1
Procedure: (§1) The human 5-HT2a and 5-HT2b screens were conducted according to Bonhaus, D. W. et al. Br. J. Pharmacol. 1995, 115, 622. The human 5-HT2c screen was conducted according to Wolf, W. A. et al. J. Neurochem. 1997, 69, 1449. The human 5-HT6 screen was conducted according to Monsma, F. J. et al. Mol. Pharmacol. 1993, 43, 320.
CHO-K1 cells stably transfected with a plasmid encoding the human serotonin 5-HT2A receptor were used to prepare membranes in modified Tris-HCl pH 7.7 buffer using standard techniques. […] Non-specific binding was estimated in the presence of 1 μM mianserin. […] See Bonhaus, D. W. et al. “The pharmacology and distribution of human 5-hydroxytryptamine2B (5-HT2B) receptor gene products: comparison with 5-HT2A and 5-HT2C receptors” Brit. J. Pharmacol. 115: 622–628, 1995; and Saucier, C and Albert, P. R. “Identification of an endogenous 5-hydroxytryptamine2A receptor in NIH-3T3 cells: agonist-induced down-regulation involves decreases in receptor RNA and number” J. Neurochem. 68: 1998–2011, 1997.
(§2) The human 5-HT2a and 5-HT2b screens were conducted according to Bonhaus, D. W. et al. Br. J. Pharmacol. 1995, 115, 622. The human […], W. A. et al. J. Neurochem. 1997, 69, 1449. The human 5-HT6 screen was conducted according to Monsama, F. J. et al. Mol. Pharmacol. 1993, 43, 320. The assay to human D3 receptors was conducted according to Sokoloff, P. et al. Nature 1990, 347;146. The human dopamine transporter assay was conducted according to Gu, H. et. al. J. Biol. Chem. 1994, 269 (10);7124; and Giros, B. et al. Trends. Pharmacol. Sci. 1993, 14: 43. The human muscarinic M1–M4 screens were conducted according to Buckley N. J. et al. Mol. Pharmacol. 1989, 35:469.

[2] = target: T2, human serotonin 5-HT2B receptor (Homo sapiens, UniProt P41595); assay: Radioligand binding assay, human 5-HT2B receptors ([3H]LSD)
T2 construct: expressed in transfected cells; host or cells: CHO-K1
Procedure: This assay measures binding of [^3H]LSD to human serotonin 5-HT2B receptors. CHO-K1 cells stably transfected with a plasmid encoding the human serotonin 5-HT2B receptor were used to prepare membranes in modified Tris-HCl pH 7.4 buffer using standard techniques. […] Non-specific binding was estimated in the presence of 10 μM serotonin. Membranes were filtered and washed 3 times and the filters were counted to determine [^3H]LSD specifically bound. See Bonhaus, D. W. et al. “The pharmacology and distribution of human 5-hydroxytryptamine2B (5-HT2B) receptor gene products: comparison with 5-HT2A and 5-HT2C receptors” Brit.
The human 5-HT2b screen was conducted according to Wolf, W. A. et al. J. Neurochem.

[3] = target: T3, human dopamine D3 receptor (Homo sapiens, UniProt P35462); assay: Radioligand binding assay, human dopamine D3 receptors ([3H]Spiperone)
T3 construct: expressed in transfected cells; host or cells: CHO
Procedure: The assay for binding to human D3 receptors was conducted according to Sokoloff, P. et al. Nature 1990, 347, 146.
CHO cells stably transfected with a plasmid encoding the human dopamine D3 receptor were used to prepare membranes in modified Tris-HCl pH 7.4 buffer using standard techniques. […] Non-specific binding was estimated in the presence of 25 μM S-(−)-sulpiride. […] See Sokoloff, P. et al. “Molecular cloning and characterization of a novel dopamine receptor (D3) as a target for neuroleptics” Nature 347: 146–151, 1990.
as §2

[4] = target: T4, human serotonin 5-HT6 receptor (Homo sapiens, UniProt P50406); assay: Radioligand binding assay, human 5-HT6 receptors ([3H]LSD); conditions: read-out: IC50 (nM) 5-HT6
T4 construct: expressed in transfected cells; host or cells: HeLa/E6-7
Procedure: as §1
This assay measures binding of [^3H]LSD (lysergic acid diethylamide) to human serotonin 5-HT6 receptors. HeLa/E6–7 cells stably transfected with a plasmid encoding the human serotonin 5-HT6 receptor were used to prepare membranes in modified Tris-HCl pH 7.4 buffer using standard techniques. A 30 μg aliquot of membrane was incubated with 1.5 nM [^3H]LSD for 120 minutes at 37° C. Non-specific binding was estimated in the presence of 5 μM 5-HT. Membranes were filtered and washed 3 times and the filters were counted to determine [^3H]LSD specifically bound. See Monsma, Jr., F. J. et al. “Cloning and expression of a novel serotonin receptor with high affinity for tricyclic psychotropic drugs” Mol. Pharmacol. 43: 320–327, 1993.
as §2

[5] = target: T5, human serotonin 5-HT2C receptor (Homo sapiens, UniProt P28335); assay: Radioligand binding assay, human 5-HT2C receptors ([3H]Mesulergine)
T5 construct: expressed in transfected cells; host or cells: CHO-K1
T5 sequence (P28335 33-458): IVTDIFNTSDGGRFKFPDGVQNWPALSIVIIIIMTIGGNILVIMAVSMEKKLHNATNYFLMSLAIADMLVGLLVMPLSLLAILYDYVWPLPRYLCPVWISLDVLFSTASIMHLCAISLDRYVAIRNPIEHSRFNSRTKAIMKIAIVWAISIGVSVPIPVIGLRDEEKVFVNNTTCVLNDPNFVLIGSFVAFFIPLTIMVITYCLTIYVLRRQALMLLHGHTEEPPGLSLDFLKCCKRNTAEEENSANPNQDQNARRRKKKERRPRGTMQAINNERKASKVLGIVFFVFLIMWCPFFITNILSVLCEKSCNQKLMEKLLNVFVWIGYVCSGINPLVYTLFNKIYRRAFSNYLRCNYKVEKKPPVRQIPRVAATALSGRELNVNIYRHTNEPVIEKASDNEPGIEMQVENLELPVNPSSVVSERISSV
Procedure: as §1
CHO-K1 cells stably transfected with a plasmid encoding the human serotonin 5-HT2C receptor were used to prepare membranes in modified Tris-HCl pH 7.7 buffer using standard techniques. […] Non-specific binding was estimated in the presence of 1 μM mianserin. […] See Wolf, W. A. and Schutz, J. S. “The serotonin 5-HT2C receptor is a prominent serotonin receptor in basal ganglia: evidence from functional studies on serotonin-mediated phosphoinositide hydrolysis” J. Neurochem. 69: 1449–1458, 1997.
as §2

[6] = target: T6, human dopamine transporter (Homo sapiens, UniProt Q01959); assay: Binding to human dopamine transporter ([125I]RTI-55); conditions: human; Example 100 table; read-out: IC50 (nM) DAT
T6 construct: expressed in transfected cells; host or cells: CHO-K1
Procedure: CHO-K1 cell membranes stably transfected with a plasmid encoding the human dopamine transporter were prepared in modified Tris-HCl pH 7.4 buffer using standard techniques. […] Non-specific binding was estimated in the presence of 10 μM nomifensine. […] Trends. […]

[7] = human 5-HT2a, Example 16 table, read-out: IC50 (nM) 5-HT2a
[8] = human 5-HT2b, Example 16 table, read-out: IC50 (nM) 5-HT2b
[9] = Example 20 table, read-out: IC50 (nM) Against Human D3 Receptors
[10] = human 5-HT2c, Example 16 table, read-out: IC50 (nM) 5-HT2c
[11] = human, Example 100 table, read-out: IC50 (nM) D3
[12] = human, Example 100 table, read-out: IC50 (nM) 5-HT2A
[13] = human, Example 100 table, read-out: IC50 (nM) 5-HT2B
[14] = human, Example 100 table, read-out: IC50 (nM) 5-HT2C

T1 sequence (P28223 whole entry): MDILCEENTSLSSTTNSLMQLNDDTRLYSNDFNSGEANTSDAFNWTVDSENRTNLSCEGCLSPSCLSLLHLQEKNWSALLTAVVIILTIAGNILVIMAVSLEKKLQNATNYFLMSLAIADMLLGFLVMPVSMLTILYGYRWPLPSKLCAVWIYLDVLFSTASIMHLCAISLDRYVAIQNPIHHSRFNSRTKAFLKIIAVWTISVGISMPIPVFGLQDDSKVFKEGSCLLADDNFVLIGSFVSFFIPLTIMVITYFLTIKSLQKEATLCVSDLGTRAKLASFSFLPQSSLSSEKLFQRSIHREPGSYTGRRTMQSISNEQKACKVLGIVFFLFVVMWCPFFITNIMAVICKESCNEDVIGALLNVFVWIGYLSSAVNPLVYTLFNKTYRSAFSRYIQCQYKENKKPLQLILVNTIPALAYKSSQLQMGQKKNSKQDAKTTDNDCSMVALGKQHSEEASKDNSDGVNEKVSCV
T4 sequence (P50406 whole entry): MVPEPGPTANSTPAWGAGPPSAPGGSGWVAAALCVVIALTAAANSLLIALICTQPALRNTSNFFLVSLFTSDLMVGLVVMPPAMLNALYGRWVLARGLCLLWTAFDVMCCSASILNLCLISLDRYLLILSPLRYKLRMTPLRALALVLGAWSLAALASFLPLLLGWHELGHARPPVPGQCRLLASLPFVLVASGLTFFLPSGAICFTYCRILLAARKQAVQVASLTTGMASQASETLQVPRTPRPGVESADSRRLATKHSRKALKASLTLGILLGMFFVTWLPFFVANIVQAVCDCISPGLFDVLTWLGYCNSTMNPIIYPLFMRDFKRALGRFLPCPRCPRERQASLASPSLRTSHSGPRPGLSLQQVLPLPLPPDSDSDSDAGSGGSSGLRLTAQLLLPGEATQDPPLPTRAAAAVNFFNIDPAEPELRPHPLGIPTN
T6 sequence (Q01959 whole entry): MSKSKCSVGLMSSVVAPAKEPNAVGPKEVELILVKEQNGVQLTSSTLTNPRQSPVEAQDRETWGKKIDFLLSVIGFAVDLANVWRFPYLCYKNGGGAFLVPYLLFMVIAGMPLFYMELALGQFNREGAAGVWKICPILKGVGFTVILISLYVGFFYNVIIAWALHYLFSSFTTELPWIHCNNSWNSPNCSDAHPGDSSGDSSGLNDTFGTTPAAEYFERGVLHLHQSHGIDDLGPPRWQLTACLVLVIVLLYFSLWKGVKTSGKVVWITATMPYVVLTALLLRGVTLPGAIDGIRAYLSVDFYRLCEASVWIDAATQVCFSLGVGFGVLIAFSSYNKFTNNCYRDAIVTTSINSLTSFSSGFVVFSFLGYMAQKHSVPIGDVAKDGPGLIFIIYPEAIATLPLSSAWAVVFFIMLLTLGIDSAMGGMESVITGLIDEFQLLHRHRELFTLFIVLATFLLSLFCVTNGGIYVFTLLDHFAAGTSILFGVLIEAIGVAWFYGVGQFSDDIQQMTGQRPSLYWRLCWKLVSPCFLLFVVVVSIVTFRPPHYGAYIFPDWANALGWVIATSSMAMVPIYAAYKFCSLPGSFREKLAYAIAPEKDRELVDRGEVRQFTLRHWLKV
T3 sequence (P35462 whole entry): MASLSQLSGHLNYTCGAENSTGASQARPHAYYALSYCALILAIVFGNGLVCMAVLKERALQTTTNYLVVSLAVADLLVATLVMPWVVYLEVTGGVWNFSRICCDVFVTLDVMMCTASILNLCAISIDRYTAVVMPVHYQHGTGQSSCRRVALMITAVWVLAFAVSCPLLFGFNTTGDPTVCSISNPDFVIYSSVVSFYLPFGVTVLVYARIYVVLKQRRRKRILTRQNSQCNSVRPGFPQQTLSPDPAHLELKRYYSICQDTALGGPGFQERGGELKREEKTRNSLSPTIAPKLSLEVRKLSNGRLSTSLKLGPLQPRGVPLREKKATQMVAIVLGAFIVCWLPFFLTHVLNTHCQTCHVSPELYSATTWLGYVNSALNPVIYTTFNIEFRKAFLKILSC
T2 sequence (P41595 whole entry): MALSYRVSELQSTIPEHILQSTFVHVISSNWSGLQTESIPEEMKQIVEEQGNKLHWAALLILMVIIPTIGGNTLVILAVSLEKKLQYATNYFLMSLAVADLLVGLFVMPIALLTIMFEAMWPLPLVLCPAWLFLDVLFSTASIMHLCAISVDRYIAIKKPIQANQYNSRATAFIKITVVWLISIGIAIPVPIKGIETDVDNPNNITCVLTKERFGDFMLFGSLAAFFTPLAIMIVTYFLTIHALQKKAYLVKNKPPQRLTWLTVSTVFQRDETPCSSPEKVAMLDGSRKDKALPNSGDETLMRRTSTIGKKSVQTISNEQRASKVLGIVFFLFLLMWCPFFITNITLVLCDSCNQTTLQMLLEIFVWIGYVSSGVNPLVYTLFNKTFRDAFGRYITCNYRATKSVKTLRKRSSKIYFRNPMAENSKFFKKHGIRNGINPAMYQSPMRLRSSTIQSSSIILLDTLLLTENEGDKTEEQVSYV

| IC50 [3, 11] | IC50 ([4]; human, Example 100 table) | IC50 [6] | SMILES | IC50 [1, 7] | IC50 [2, 8] | IC50 [3, 9] | IC50 ([4]; human 5-HT6, Example 16 table) | IC50 [5, 10] | IC50 [1, 12] | IC50 [2, 13] | IC50 [5, 14] |
| --- | --- | --- | --- | --- | --- | --- | --- | --- | --- | --- | --- |
| > 1000 nM | < 1000 nM | < 1000 nM | Clc1ccc(C2(c3csc(NCCN4CCOCC4)n3)CCCC2)cc1 [Compound 99] |  |  |  |  |  |  |  |  |
| < 1000 nM | < 1000 nM | > 1000 nM | CN1CCCC1CCNc1nc(C2(c3ccccc3F)CCCC2)cs1 (centres unmarked) [Compound 111] |  |  |  |  |  |  |  |  |
| > 1000 nM | < 10 nM | < 1000 nM | CN1CCC(N(C)c2nc(C3(c4ccc(Cl)cc4)CCCC3)cs2)C1 (centres unmarked) [Compound 116] |  |  |  |  |  |  |  |  |
| > 1000 nM | < 100 nM | > 1000 nM | Fc1ccccc1C1(c2csc(N3CCNCC3)n2)CCCC1 [Compound 121] |  |  |  |  |  |  |  |  |
| < 1000 nM | < 1000 nM | < 1000 nM | Fc1ccccc1C1(c2csc(N3CCN(CC4CC4)CC3)n2)CCCC1 [Compound 122] |  |  |  |  |  |  |  |  |
| < 1000 nM | < 100 nM |  | CN1CCCN(c2nc(C3(c4ccccc4F)CCCC3)cs2)CC1 [Compound 139] |  |  |  |  |  | < 1000 nM | < 100 nM | < 100 nM |

Further lines, the compound ahead of its results:

| SMILES | IC50 [3, 11] | IC50 ([4]; human, Example 100 table) | IC50 [6] | IC50 [1, 7] | IC50 [2, 8] | IC50 [3, 9] | IC50 ([4]; human 5-HT6, Example 16 table) | IC50 [5, 10] | IC50 [1, 12] | IC50 [2, 13] | IC50 [5, 14] |
| --- | --- | --- | --- | --- | --- | --- | --- | --- | --- | --- | --- |
| Clc1cccc(C2(c3csc(C4CCNCC4)n3)CCOCC2)c1 [Compound 68] |  |  |  | > 1000 nM | > 1000 nM | > 1000 nM | < 1000 nM | > 1000 nM |  |  |  |
| CN1CCC(c2nc(C3(c4cccc(Cl)c4)CCOCC3)cs2)CC1 [Compound 69] |  |  |  | > 1000 nM | > 1000 nM | > 1000 nM | < 1000 nM | > 1000 nM |  |  |  |
| CC(C)N1CCN(c2nc(C3(c4ccc(Cl)cc4)CCCCC3)cs2)CC1 [Compound 78] |  |  |  | > 1000 nM | < 1000 nM | < 1000 nM | > 1000 nM | > 1000 nM |  |  |  |
| CC(C)N1CCN(c2nc(C3(c4ccc(F)cc4)CCCCC3)cs2)CC1 [Compound 80] |  |  |  | > 1000 nM | < 1000 nM | < 1000 nM | > 1000 nM | < 1000 nM |  |  |  |
| CN1CCN(c2nc(C3(c4ccc(F)cc4)CCCCC3)cs2)CC1 [Compound 81] |  |  |  | > 1000 nM | < 100 nM | < 1000 nM | < 1000 nM | < 1000 nM |  |  |  |
| Cc1c(-c2csc(N3CCN(C)CC3)n2)sc2ccc(Cl)cc12 [Compound 113] | > 1000 nM | > 1000 nM |  |  |  |  |  |  | < 1000 nM | > 1000 nM | < 1000 nM |
